We go through one substance from EP1114060B1, “PROCESS FOR PRODUCING PEPTIDES FROM BIOLOGICAL FLUIDS AND PEPTIDES […] SAID PROCESS” (NIZO food research, priority 1998, dated 2003).

The assay concerns Micrococcus flavus DSM 1790. Nature of the assay: plate diffusion assay for antibacterial activity. It is filed as cell-based. Particulars: fraction desorbed with 1 M KCI in phosphate buffer, pH 7.0. How it is done: Antibacterial activities of the peptide mixtures and/or isolated peptides were determined by a plate diffusion assay using Micrococcus flavus DSM 1790 as indicator organism. M. flavus was grown in MF broth (0.1% sucrose, 1% peptone, 0.3% meat extract, 0.2% NaCI, 0.15% yeast extract pH 7.0). Peptide mixtures were tested at concentrations from 0.2 mg/ml to 50 mg/ml in bidistilled water.

Bridges are numbered along the chain shown (N, C = ends). Where no end group is shown, it is not given here. [ ]: non-standard residue; d: D form. Dhb = C/C=C(\N)C(=O)O; Dha = C=C(N)C(=O)O

As to “nisin A (I[Dhb]SI[Dha]LCTPGCKTGALMGCNMKTATCHCSIHV[Dha]K; bridge 23-26, 13-19, 8-11, 25-28, 3-7; not fully specified (bridges); UniProt P13068 24-57, looked up) [lantibiotic]”, the “activity against Micrococcus flavus” value is reported as “showed activity”.
